From patent US20090325964A1, “Piperazine Metabotropic Glutamate Receptor 5 (MGLUR5) Negative Allosteric Modulators For Anxiety/Depression” (Wyeth, priority 2008, published 2009)
Like-named read-outs stand apart in the source and are kept apart here.

Molecular target: T1, rat mGluR5 receptor (Rattus norvegicus, UniProt P31424)
T1 construct: expressed in transfected cells; host or cells: HEK-293
Experiment: [3H]-MPEP displacement binding assay, HEK-293 cell membranes expressing rat mGluR5
Conditions: for Ki: read-out: Median Ki; for inhibition at 10 µM: 1 h, single point, @ 10 μm compound, Table 1A, read-out: PCT INHIB (%) @ 10 μm
Procedure: MGluR5 expressing HEK-293 cells were scraped off a plate, transferred to centrifuge tubes and washed twice by centrifugation (2000 rpm for 10 minutes, at 4° C.) in buffer (50 mM Tris pH 7.5). The resulting pellets were aliquoted and stored at minus 80° C. On the day of assay, the cells were thawed on ice and re-suspended in buffer. The binding assay was performed in a 96 well microtiter plate in a total volume of […]. Non-specific binding was determined in the presence of 10 μM MPEP. The binding reaction included a final radioligand [^3H]-MPEP concentration of 4 nM and 12-25 μg membrane protein per well. Following a 60 minute incubation at room temperature, the reaction was terminated by the addition of ice cold buffer and rapid filtration through a GF/B filter that had been presoaked for 30 minutes in 0.5% PEI. Compounds were initially tested in a single point assay to determine percent inhibition at 10 μM.
Percent inhibition and Ki values were generated by GraphPad Prism and Excel Fit. IC50 values were calculated using GraphPad by fitting to a 1 or 2 site-binding model.
where [L] is the concentration of free radioligand and Kd is the dissociation constant of radioligand for the receptor.

[1] = [3H]-MPEP displacement, rat mGluR5

T1 sequence (P31424 21-1203): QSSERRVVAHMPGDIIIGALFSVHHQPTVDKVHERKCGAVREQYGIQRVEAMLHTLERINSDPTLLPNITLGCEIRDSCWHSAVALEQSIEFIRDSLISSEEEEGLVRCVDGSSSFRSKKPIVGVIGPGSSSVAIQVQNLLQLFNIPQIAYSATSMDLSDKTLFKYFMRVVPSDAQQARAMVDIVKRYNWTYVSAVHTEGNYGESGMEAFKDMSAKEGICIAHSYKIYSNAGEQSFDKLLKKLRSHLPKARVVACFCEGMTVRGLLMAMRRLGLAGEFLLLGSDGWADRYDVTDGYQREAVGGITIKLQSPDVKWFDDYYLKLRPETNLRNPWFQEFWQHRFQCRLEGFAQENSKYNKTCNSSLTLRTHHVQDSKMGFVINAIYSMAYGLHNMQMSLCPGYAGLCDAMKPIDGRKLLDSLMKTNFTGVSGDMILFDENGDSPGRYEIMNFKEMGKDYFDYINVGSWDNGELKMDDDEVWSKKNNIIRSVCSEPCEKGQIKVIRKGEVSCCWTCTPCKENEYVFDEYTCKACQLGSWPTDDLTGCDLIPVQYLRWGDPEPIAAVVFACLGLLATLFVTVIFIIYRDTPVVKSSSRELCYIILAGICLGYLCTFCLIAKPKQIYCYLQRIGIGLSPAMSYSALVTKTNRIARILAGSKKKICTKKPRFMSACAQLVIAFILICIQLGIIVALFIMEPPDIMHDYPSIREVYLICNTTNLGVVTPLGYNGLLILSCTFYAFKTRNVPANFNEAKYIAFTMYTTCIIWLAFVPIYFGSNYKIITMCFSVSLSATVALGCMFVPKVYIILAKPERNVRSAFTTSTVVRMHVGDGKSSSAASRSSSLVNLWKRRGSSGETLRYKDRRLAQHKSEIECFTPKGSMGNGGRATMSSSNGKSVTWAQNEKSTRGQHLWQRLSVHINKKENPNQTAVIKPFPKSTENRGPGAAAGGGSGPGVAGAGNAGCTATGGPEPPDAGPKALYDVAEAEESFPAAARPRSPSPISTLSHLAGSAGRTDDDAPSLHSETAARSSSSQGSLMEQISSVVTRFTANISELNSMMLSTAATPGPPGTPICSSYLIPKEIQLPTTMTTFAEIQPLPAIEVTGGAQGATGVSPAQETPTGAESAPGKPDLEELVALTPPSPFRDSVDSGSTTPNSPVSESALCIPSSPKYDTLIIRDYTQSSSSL

Molecule | Ki [1] | Ki ([3H]-MPEP displacement, rat mGluR5 membranes) | inhibition at 10 µM | Ki
1-(2-chlorobenzyl)-4-[4-methoxy-3-(pyridin-2-ylethynyl)benzoyl]piperazin-2-one [Compound 332] | 32 nM |  |  | 
1-(3-chlorobenzyl)-4-[4-methoxy-3-(pyridin-2-ylethynyl)benzoyl]piperazin-2-one [Compound 333] | 34 nM |  |  | 
1-(3-chloropyridin-2-yl)-4-{4-methoxy-3-[(3-nitrophenyl)ethynyl]benzoyl}piperazine [Compound 345] | 3210 nM |  |  | 
1-(4-chlorobenzyl)-4-[4-methoxy-3-(pyridin-2-ylethynyl)benzoyl]piperazin-2-one [Compound 334] | 54 nM |  |  | 
1-(4-methylpyridin-2-yl)-4-{[3-(pyridin-2-ylethynyl)-4-(trifluoromethyl)phenyl]carbonyl}piperazine [Compound 367] |  | 8 nM |  | 
2-{4-[4-methoxy-3-(pyridin-2-ylethynyl)benzoyl]piperazin-1-yl}-1,3-benzothiazole [Compound 256] | 43 nM |  |  | 
Cc1ccc(C#Cc2cccc(C(=O)N3CCN(c4ccccn4)CC3)c2)cc1 [Compound 1, 1-{3-[(4-methylphenyl)ethynyl]benzoyl}-4-pyridin-2-ylpiperazine] |  |  | 55% | 
O=C(c1cccc(C#Cc2ccc(Cl)cc2)c1)N1CCN(c2ccccn2)CC1 [Compound 3, 1-{3-[(4-chlorophenyl)ethynyl]benzoyl}-4-pyridin-2-ylpiperazine] |  |  | 45% | 
Cc1ccccc1C#Cc1cccc(C(=O)N2CCN(c3ccccn3)CC2)c1 [Compound 4, 1-{3-[(2-methylphenyl)ethynyl]benzoyl}-4-pyridin-2-ylpiperazine] |  |  | 0% | 
O=C(c1cccc(C#Cc2ccccc2C(F)(F)F)c1)N1CCN(c2ccccn2)CC1 [Compound 5, 1-pyridin-2-yl-4-(3-{[2-(trifluoromethyl)phenyl]ethynyl}benzoyl)piperazine] |  |  | 0% | 
O=C(c1cccc(C#Cc2cccc(O)c2)c1)N1CCN(c2ccccn2)CC1 [Compound 6, 3-({3-[(4-pyridin-2-ylpiperazin-1-yl)carbonyl]phenyl}ethynyl)phenol] |  |  | 75% | 1120 nM
Cn1cncc1C#Cc1cccc(C(=O)N2CCN(c3ccccn3)CC2)c1 [Compound 7, 1-{3-[(1-methyl-1H-imidazol-5-yl)ethynyl]benzoyl}-4-pyridin-2-ylpiperazine] |  |  | 0% | 
O=C(c1cccc(C#CC2=CCCCC2)c1)N1CCN(c2ccccn2)CC1 [Compound 8, 1-[3-(cyclohex-1-en-1-ylethynyl)benzoyl]-4-pyridin-2-ylpiperazine] |  |  | 78% | 1220 nM
O=C(c1cccc(C#CC2(O)CCCC2)c1)N1CCN(c2ccccn2)CC1 [Compound 9, 1-({3-[(4-pyridin-2-ylpiperazin-1-yl)carbonyl]phenyl}ethynyl)cyclopentanol] |  |  | 0% | 
Nc1cccc(C#Cc2cccc(C(=O)N3CCN(c4ccccn4)CC3)c2)c1 [Compound 11, 3-({3-[(4-pyridin-2-ylpiperazin-1-yl)carbonyl]phenyl}ethynyl)aniline] |  |  | 85% | 
O=C(c1cccc(C#CC2(O)CCCCC2)c1)N1CCN(c2ccccn2)CC1 [Compound 12, 1-({3-[(4-pyridin-2-ylpiperazin-1-yl)carbonyl]phenyl}ethynyl)cyclohexanol] |  |  | 0% | 

Molecule | Ki [1] | Ki ([3H]-MPEP displacement, rat mGluR5 membranes) | inhibition at 10 µM | Ki
O=C(c1cccc(C#CC(O)c2ccccc2)c1)N1CCN(c2ccccn2)CC1 (centres unmarked) [Compound 13, 1-phenyl-3-{3-[(4-pyridin-2-ylpiperazin-1-yl)carbonyl]phenyl}prop-2-yn-1-ol] |  |  | 15% | 
COc1ccc(C(=O)N2CCN(c3ccccn3)CC2)cc1C#CC1=CCCCC1 [Compound 15, 1-[3-(cyclohex-1-en-1-ylethynyl)-4-methoxybenzoyl]-4-pyridin-2-ylpiperazine] |  |  | 76% | 236 nM
COc1ccc(C(=O)N2CCN(c3ccccn3)CC2)cc1C#CCc1ccccc1 [Compound 16, 1-[4-methoxy-3-(3-phenylprop-1-yn-1-yl)benzoyl]-4-pyridin-2-ylpiperazine] |  |  | 84% | 43 nM
COc1cccc(C#Cc2cc(C(=O)N3CCN(c4ccccn4)CC3)ccc2OC)c1 [Compound 17, 1-{4-methoxy-3-[(3-methoxyphenyl)ethynyl]benzoyl}-4-pyridin-2-ylpiperazine] |  |  | 91% | 51 nM
COc1ccc(C(=O)N2CCN(c3ccccn3)CC2)cc1C#Cc1cccc(C)c1 [Compound 18, 1-{4-methoxy-3-[(3-methylphenyl)ethynyl]benzoyl}-4-pyridin-2-ylpiperazine] |  |  | 99% | 6 nM
COc1ccc(C(=O)N2CCN(c3ccccn3)CC2)cc1C#Cc1cccc(Cl)c1 [Compound 19, 1-{3-[(3-chlorophenyl)ethynyl]-4-methoxybenzoyl}-4-pyridin-2-ylpiperazine] |  |  | 97% | 6 nM
COc1cc(C#Cc2cc(C(=O)N3CCN(c4ccccn4)CC3)ccc2OC)cc(OC)c1 [Compound 20, 1-{3-[(3,5-dimethoxyphenyl)ethynyl]-4-methoxybenzoyl}-4-pyridin-2-ylpiperazine] |  |  | 0% | 
COc1ccc(C(=O)N2CCN(c3ccccn3)CC2)cc1C#Cc1cc(F)cc(F)c1 [Compound 21, 1-{3-[(3,5-difluorophenyl)ethynyl]-4-methoxybenzoyl}-4-pyridin-2-ylpiperazine] |  |  | 79% | 1940 nM
COc1ccc(C(=O)N2CCN(c3ccccn3)CC2)cc1C#Cc1cc(C)ccc1C [Compound 22, 1-{3-[(2,5-dimethylphenyl)ethynyl]-4-methoxybenzoyl}-4-pyridin-2-ylpiperazine] |  |  | 43% | 
COc1ccc(C(=O)N2CCN(c3ccccn3)CC2)cc1C#Cc1cc(C)c(C)cc1C [Compound 23, 1-{4-methoxy-3-[(2,4,5-trimethylphenyl)ethynyl]benzoyl}-4-pyridin-2-ylpiperazine] |  |  | 0% | 
Cc1ccc(C(=O)N2CCN(c3ccccn3)CC2)cc1C#CC1=CCCCC1 [Compound 24, 1-[3-(cyclohex-1-en-1-ylethynyl)-4-methylbenzoyl]-4-pyridin-2-ylpiperazine] |  |  | 71% | 1290 nM
Cc1ccc(C(=O)N2CCN(c3ccccn3)CC2)cc1C#CCc1ccccc1 [Compound 25, 1-[4-methyl-3-(3-phenylprop-1-yn-1-yl)benzoyl]-4-pyridin-2-ylpiperazine] |  |  | 63% | 452 nM
COc1cccc(C#Cc2cc(C(=O)N3CCN(c4ccccn4)CC3)ccc2C)c1 [Compound 26, 1-{3-[(3-methoxyphenyl)ethynyl]-4-methylbenzoyl}-4-pyridin-2-ylpiperazine] |  |  | 86% | 322 nM
Cc1ccc(C(=O)N2CCN(c3ccccn3)CC2)cc1C#Cc1cccc(C(F)(F)F)c1 [Compound 27, 1-(4-methyl-3-{[3-(trifluoromethyl)phenyl]ethynyl}benzoyl)-4-pyridin-2-ylpiperazine] |  |  | 81% | 469 nM
Cc1ccc(C(=O)N2CCN(c3ccccn3)CC2)cc1C#Cc1cccc(Cl)c1 [Compound 28, 1-{3-[(3-chlorophenyl)ethynyl]-4-methylbenzoyl}-4-pyridin-2-ylpiperazine] |  |  | 79% | 76 nM
